Measurements reported in US12031989B2, “Preparing live microbial samples and microorganisms for subsequent mass spectrometric measurement and evaluation” (Bruker Daltonics GmbH & Co. KG, priority 2016, dated 2024).

Columns and labels:
[1] = system: Klebsiella pneumoniae meropenem-sensitive strain; experiment: resistance/sensitivity test directly on MALDI-TOF MS sample support, meropenem-sensitive strain; format: cell-based
From the text: The antibiotic (for example an antibiotic solution in a liquid nutrient medium) can be mixed with a microorganism suspension either in a cultivation vessel or directly on a spot of a MALDI-TOF MS support 12 (hatched droplet 14*). In addition, this is generally accompanied by a growth control on a different section of the MALDI-TOF MS support, i.e. a cultivation of the microorganism suspension in a nutrient medium without the addition of an antibiotic (unhatched droplet 14). It is preferable for a very small quantity of the suspension to be applied to the spots; for example 1-10 microliters. The sensitivity test thus takes place in microdroplets 14, 14*, preferably with a volume of around 4-8 microliters. The use of even smaller volumes is also possible in principle, for example in the form of nanodroplets. […]
In the example shown, the MALDI-TOF MS support 12 with the test solution is subsequently cultured in a so-called “humidity chamber” 16 in an incubator at high humidity. […] A small quantity of liquid can be put in the humidity chamber 16, for example 0.1 to 5 milliliters of water or NaCl solution to humidify the atmosphere in the chamber 16 and thus set a high ambient humidity (nearly 100%) so that the evaporation of the droplets of nutrient medium 14, 14* themselves is prevented. […]

[2] = system: Klebsiella pneumoniae meropenem-resistant strain; experiment: resistance/sensitivity test directly on MALDI-TOF MS sample support, meropenem-resistant strain; format: cell-based
From the text: The antibiotic (for example an antibiotic solution in a liquid nutrient medium) can be mixed with a microorganism suspension either in a cultivation vessel or directly on a spot of a MALDI-TOF MS support 12 (hatched droplet 14*). In addition, this is generally accompanied by a growth control on a different section of the MALDI-TOF MS support, i.e. a cultivation of the microorganism suspension in a nutrient medium without the addition of an antibiotic (unhatched droplet 14). It is preferable for a very small quantity of the suspension to be applied to the spots; for example 1-10 microliters. The sensitivity test thus takes place in microdroplets 14, 14*, preferably with a volume of around 4-8 microliters. The use of even smaller volumes is also possible in principle, for example in the form of nanodroplets. The initial microorganism concentration in the droplets 14, 14* can be slightly below the detection limit of a conventional MALDI time-of-flight mass spectrometer with linear flight path, and thus amount to around 5×10^5 cfu per milliliter, for example (cfu—colony forming unit). FIG. 3A.
In the example shown, the MALDI-TOF MS support 12 with the test solution is subsequently cultured in a so-called “humidity chamber” 16 in an incubator at high humidity. The purpose of the humidity chamber 16 is to prevent the droplets 14, 14* from evaporating prematurely during the incubation, and it can take the form of a box with a lid, made of plastic, for example, into which the MALDI-TOF MS support can easily be placed. […] A small quantity of liquid can be put in the humidity chamber 16, for example 0.1 to 5 milliliters of water or NaCl solution to humidify the atmosphere in the chamber 16 and thus set a high ambient humidity (nearly 100%) so that the evaporation of the droplets of nutrient medium 14, 14* themselves is prevented. FIG. 3B.
In the droplets 14, 14*, a high concentration of the microorganisms in a small volume of liquid is rapidly achieved during incubation (as long as the growth is not inhibited by antimicrobial substances). […]

[3] = 2 micrograms per milliliter, 6 microliter droplet, four hours incubation, MALDI Biotyper evaluation

For `C[C@@H](O)[C@H]1C(=O)N2C(C(=O)O)=C(S[C@@H]3CN[C@H](C(=O)N(C)C)C3)[C@H](C)[C@H]12` [meropenem], the “bacterial growth in the presence of meropenem (specific mass signal signatures vs growth control)” value [1, 3] was “cannot multiply (or scarcely)”, the relative growth ([1]; droplet sizes 2, 4, 6, 8 and 10 microliters, significant growth threshold 0.4, FIG. 4B) was < 0.4 and the “bacterial growth in the presence of meropenem (specific mass signal signatures vs growth control)” value [2, 3] was “not inhibited”. The “relative growth, median” value ([2]; 4 microliter droplet, measurements occasionally below threshold, FIG. 4B) was “greater than 0.4” and the relative growth ([2]; droplet sizes 2, 6, 8 and 10 microliters, significant growth threshold 0.4, FIG. 4B) was “greater than 0.4”.
